The values below come from the supplement of paper PMC10307832.

Common to all, as to experiment: relative viability (nuclei count vs DMSO), 5 days (fraction); higher = more cells survive
Compound in the assay “EHT 1864 + Crizotinib”: C1COCCN1CC2=CC(=O)C(=CO2)OCCCCCSC3=C4C=CC(=CC4=NC=C3)C(F)(F)F [EHT 1864] + C[C@@H](Oc1cc(-c2cnn(C3CCNCC3)c2)cnc1N)c1c(Cl)ccc(F)c1Cl [Crizotinib] (partner 1 µM)
Summed up:
(§1)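 Values are medians from duplicate plates. Each reflects relative viability, defined as the nuclei count of treated wells over that of vehicle wells. Lung cancer cell lines in 1536-well plates were pin-tool dosed one day after seeding with one drug alone or with a fixed anchor-drug dose plus five library-drug doses (not always all listed) in √10 steps, then fixed, stained and imaged at 4× after 5 days.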

Compound in the assay “EHT 1864 + Palbociclib”: C1COCCN1CC2=CC(=O)C(=CO2)OCCCCCSC3=C4C=CC(=CC4=NC=C3)C(F)(F)F [EHT 1864] + CC(=O)c1c(C)c2cnc(Nc3ccc(N4CCNCC4)cn3)nc2n(C2CCCC2)c1=O [Palbociclib] (partner 0.5 µM)
The method, boiled down:
as §1

Compound in the assay “EHT 1864 + AZD7762”: C1COCCN1CC2=CC(=O)C(=CO2)OCCCCCSC3=C4C=CC(=CC4=NC=C3)C(F)(F)F [EHT 1864] + NC(=O)Nc1cc(-c2cccc(F)c2)sc1C(=O)N[C@H]1CCCNC1 [AZD7762] (partner 0.2 µM)
Summed up:
as §1

Compound in the assay “EHT 1864 + Vorinostat”: C1COCCN1CC2=CC(=O)C(=CO2)OCCCCCSC3=C4C=CC(=CC4=NC=C3)C(F)(F)F [EHT 1864] + O=C(CCCCCCC(=O)Nc1ccccc1)NO [Vorinostat] (partner 1 µM)
The method, boiled down: as §1

In the case of NCI-H3122, the relative viability came out at 0.327 with EHT 1864 + Crizotinib (first compound 0.04 µM); 0.278 with EHT 1864 + Crizotinib (first compound 0.1265 µM); 0.276 with EHT 1864 + Crizotinib (first compound 0.4 µM); 0.315 with EHT 1864 + Crizotinib (first compound 1.265 µM); 0.245 with EHT 1864 + Crizotinib (first compound 4 µM); 0.172 in the assay with EHT 1864 + Palbociclib (first compound 0.04 µM). The relative viability in the assay with EHT 1864 + Palbociclib (first compound 0.1265 µM) is 0.21; with EHT 1864 + Palbociclib (first compound 0.4 µM) it was 0.211; with EHT 1864 + Palbociclib (first compound 1.265 µM) it was 0.203; with EHT 1864 + Palbociclib (first compound 4 µM), 0.201; in the assay with EHT 1864 + AZD7762 (first compound 0.04 µM) it was 0.882; with EHT 1864 + AZD7762 (first compound 0.1265 µM), 0.808. Further, the relative viability in the assay with EHT 1864 + AZD7762 (first compound 0.4 µM) was 0.911; with EHT 1864 + AZD7762 (first compound 1.265 µM) it was 0.985; with EHT 1864 + AZD7762 (first compound 4 µM) it was 0.878; in the assay with EHT 1864 + Vorinostat (first compound 0.04 µM), 0.934; with EHT 1864 + Vorinostat (first compound 0.1265 µM), 0.76; in the assay with EHT 1864 + Vorinostat (first compound 0.4 µM), 0.899. The relative viability with EHT 1864 + Vorinostat (first compound 1.265 µM) was 1.12; in the assay with EHT 1864 + Vorinostat (first compound 4 µM), 0.992.
For PC-3 [JPC-3], the relative viability in the assay with EHT 1864 + Crizotinib (first compound 0.04 µM) was 0.973; with EHT 1864 + Crizotinib (first compound 0.1265 µM), 0.979; in the assay with EHT 1864 + Crizotinib (first compound 0.4 µM), 0.925; with EHT 1864 + Crizotinib (first compound 1.265 µM) it was 0.909; with EHT 1864 + Crizotinib (first compound 4 µM) it was 1.01; with EHT 1864 + Palbociclib (first compound 0.04 µM), 0.549. Besides, the relative viability in the assay with EHT 1864 + Palbociclib (first compound 0.1265 µM) was determined as 0.554; in the assay with EHT 1864 + Palbociclib (first compound 0.4 µM), 0.539; with EHT 1864 + Palbociclib (first compound 1.265 µM), 0.545; with EHT 1864 + Palbociclib (first compound 4 µM), 0.57; in the assay with EHT 1864 + AZD7762 (first compound 0.04 µM) it was 0.825; with EHT 1864 + AZD7762 (first compound 0.1265 µM) it was 0.753. The relative viability came out at 0.808 with EHT 1864 + AZD7762 (first compound 0.4 µM); 0.73 with EHT 1864 + AZD7762 (first compound 1.265 µM); 0.863 with EHT 1864 + AZD7762 (first compound 4 µM); 0.886 with EHT 1864 + Vorinostat (first compound 0.04 µM); 0.718 in the assay with EHT 1864 + Vorinostat (first compound 0.1265 µM); 0.83 in the assay with EHT 1864 + Vorinostat (first compound 0.4 µM). For the same cell line, the figures for the relative viability in the assay with EHT 1864 + Vorinostat (first compound 1.265 µM) and in the assay with EHT 1864 + Vorinostat (first compound 4 µM) were 0.77 and 0.801, respectively.
As to PC-14, the relative viability was determined as 0.966 with EHT 1864 + Crizotinib (first compound 0.04 µM); 0.962 with EHT 1864 + Crizotinib (first compound 0.1265 µM); 0.832 with EHT 1864 + Crizotinib (first compound 0.4 µM); 0.865 with EHT 1864 + Crizotinib (first compound 1.265 µM); 0.899 in the assay with EHT 1864 + Crizotinib (first compound 4 µM); 0.489 with EHT 1864 + Palbociclib (first compound 0.04 µM). In addition, the relative viability in the assay with EHT 1864 + Palbociclib (first compound 0.1265 µM) came out at 0.446; with EHT 1864 + Palbociclib (first compound 0.4 µM), 0.524; with EHT 1864 + Palbociclib (first compound 1.265 µM), 0.582; with EHT 1864 + Palbociclib (first compound 4 µM), 0.471; in the assay with EHT 1864 + AZD7762 (first compound 0.04 µM), 0.368; with EHT 1864 + AZD7762 (first compound 0.1265 µM), 0.248. The relative viability was 0.394 in the assay with EHT 1864 + AZD7762 (first compound 0.4 µM); 0.304 with EHT 1864 + AZD7762 (first compound 1.265 µM); 0.433 with EHT 1864 + AZD7762 (first compound 4 µM); 0.791 with EHT 1864 + Vorinostat (first compound 0.04 µM); 0.572 in the assay with EHT 1864 + Vorinostat (first compound 0.1265 µM); 0.686 in the assay with EHT 1864 + Vorinostat (first compound 0.4 µM). Also, the relative viability with EHT 1864 + Vorinostat (first compound 1.265 µM) was 0.743; with EHT 1864 + Vorinostat (first compound 4 µM) it was 0.751.
For the cell line RERF-LC-KJ, the relative viability worked out at 0.794 with EHT 1864 + Crizotinib (first compound 0.04 µM); 0.816 in the assay with EHT 1864 + Crizotinib (first compound 0.1265 µM); 0.769 in the assay with EHT 1864 + Crizotinib (first compound 0.4 µM); 0.784 in the assay with EHT 1864 + Crizotinib (first compound 1.265 µM); 0.787 with EHT 1864 + Crizotinib (first compound 4 µM); 1.09 with EHT 1864 + Palbociclib (first compound 0.04 µM). Besides, the relative viability with EHT 1864 + Palbociclib (first compound 0.1265 µM) is 0.989; in the assay with EHT 1864 + Palbociclib (first compound 0.4 µM), 0.929; with EHT 1864 + Palbociclib (first compound 1.265 µM), 1.02; with EHT 1864 + Palbociclib (first compound 4 µM), 1.11; with EHT 1864 + AZD7762 (first compound 0.04 µM) it was 0.893; in the assay with EHT 1864 + AZD7762 (first compound 0.1265 µM) it was 0.873. Further, the relative viability with EHT 1864 + AZD7762 (first compound 0.4 µM) was found to be 0.96; in the assay with EHT 1864 + AZD7762 (first compound 1.265 µM), 0.939; with EHT 1864 + AZD7762 (first compound 4 µM), 1.43; with EHT 1864 + Vorinostat (first compound 0.04 µM), 0.676; with EHT 1864 + Vorinostat (first compound 0.1265 µM), 0.585; with EHT 1864 + Vorinostat (first compound 0.4 µM), 0.69. For the same cell line, the relative viability with EHT 1864 + Vorinostat (first compound 1.265 µM) stood at 0.735; with EHT 1864 + Vorinostat (first compound 4 µM), 0.718.
